From US10639287B2, “Compounds for the treatment of mitochondrial diseases” (UNIVERSITE PARIS-SUD, priority 2014, dated 2020) come the findings set out here.

For data set [1], the system named is Saccharomyces cerevisiae mip1^G651S yeast strain. The experiment in a line: Inhibition of growth (MIC) / maximum tolerated concentration in yeast culture (DO600 after 24 h). Format: cell-based. Particulars: 1-512 μM tested. As for the experimental part:
From o/n pre-culture in selective medium (SC-URA, 2% ethanol (v/v)), 50 mL of rich YPD medium (1% Yeast Extract, 0.5% Bacto Peptone, 2% Glucose) were seeded at a DO600 of 0.05/mL. The 50 mL of culture were distributed in a series of ten tubes on the basis of 2 mL of culture/tube, with 4 mL of culture being placed in the last tube. […] From this tube (tube 1), 2 mL of culture were placed into tube 2. Tube 2 contained 4 ml of culture and clofilium tosylate at a concentration of 256 μM. 2 mL of tube 2 were added to tube 3, and so on. Each tube contained the drug at a concentration equal to half that of the previous tube. Two controls were provided—without clofilium tosylate and with DMSO (the volume being the same as that used to dilute the clofilium tosylate). The cultures were incubated at 28° C. with stirring for 24 hours, and the optical density (DO600) was measured.

The subject of data set [2] is mutated mip1 yeast strains. The experiment in a line: Production of small colonies in mutated mip1 yeast strains. It counts as cell-based, Saccharomyces cerevisiae. As for the experimental part:
The rate of small cells in a population represents the cells not breathing due to rearrangements of the mtDNA and/or having lost their mtDNA.
From a pre-culture in selective medium (SC-TRP, 2% ethanol (v/v)) of the mutated mip1 strain, 2.10^5 cells/mL were seeded in 2 mL of rich YPD medium (1% Yeast Extract, 0.5% Bacto Peptone, 2% Glucose) in the presence of 32 μM clofilium tosylate or DMSO. The cells were then incubated at 28° C. for two cycles of 24 hours. The cells were then diluted to have about 200 to 250 cells per dish and spread on differential synthetic medium (SC-TRP, 0.3% glucose, 2% ethanol). The number of small colonies was calculated after 6 days of incubation at 28° C. (Baruffini, E., Lodi, T., Dallabona, C., Puglisi, A., Zeviani, M. and Ferrero, I. (2006) Genetic and Chemical rescue of the Saccharomyces cerevisiae phenotype induced by mitochondrial DNA polymerase mutations associated with progressive external ophthalmoplegia in humans. Hum. Mol. Genet., 15, 2846-2855).
The effect of the clofilium tosylate on the production of small colonies was measured in 8 recessive mip1 mutants:
an in 3 dominant mip1 mutants: • Y757C (mutated domain: polymerase) • K749R (mutated domain: polymerase) • E698G (mutated domain: polymerase)

In a further data set the test system is MIP1 yeast mutants. The experiment in a line: Fidelity of Mip1 polymerase: frequency of cells resistant to erythromycin (Ery^R). It counts as cell-based, Saccharomyces cerevisiae. The note with it: 32 μM vs DMSO. An excerpt: A disruption of the fidelity of the Mip1 mitochondrial polymerase can be evaluated by measuring the frequency of cells resistant to erythromycin (Ery^R). The Ery^R mutations are caused by mutations in the 21S mitochondrial ribosomal RNA encoded by mtDNA that may occur after incorporation of a bad nucleotide (Baruffini, E., Lodi, T., Dallabona, C., Puglisi, A., Zeviani, M. and Ferrero, I. (2006) Genetic and Chemical rescue of the Saccharomyces cerevisiae phenotype induced by mitochondrial DNA polymerase mutations associated with progressive external ophthalmoplegia in humans. Hum. Mol. Genet., 15, 2846-2855). Measuring the resistance to erythromycin is one way to directly measure the point mutations of mtDNA.
Independent colonies were seeded in 10 mL of minimal medium (SC-TRP, 2% glucose) in the presence of 32 μM clofilium tosylate or DMSO to stationary phase. […] The mutation frequency was calculated as the number of Ery^R colonies among the total number of colonies (Baruffini, E., Lodi, T., Dallabona, C., Puglisi, A., Zeviani, M. and Ferrero, I. (2006) Genetic and Chemical rescue of the Saccharomyces cerevisiae phenotype induced by mitochondrial DNA polymerase mutations associated with progressive external ophthalmoplegia in humans. Hum. Mol. Genet., 15, 2846-2855).

For data set [3], the system named is homozygous TB2143 nematodes (polg-1(Δ/Δ)). The experiment in a line: Number of laid and hatched eggs of homozygous nematodes. It counts as in vivo, Caenorhabditis elegans. Particulars: 50 μM vs DMSO. As for the experimental part: Four homozygous TB2143 larvae (polg-1(ok1548Δ/Δ)) at stage L4 were deposited on each NGM dish containing either DMSO or 50 μM clofilium tosylate (three dishes for each treatment group). They were incubated at 20° C. to adulthood stage. The adults were moved every 9 to 12 hours, over 6 to 7 days, to new dishes containing DMSO or 50 μM clofilium tosylate until there were no eggs in the uterus, and the number of laid eggs was counted. Each laying process was monitored until the following day in order to count the hatching.

For data set [4], the system named is mitochondrial proteins POLG, TFAM and ATP5B. The experiment in a line: Amount of POLG, TFAM and ATP5B proteins in fibroblasts (western blot), cell growth conditions. Format: cell-based, human. The note with it: 0.5 μM or 1.0 μM, control and patient fibroblasts. As for the experimental part: Protein fractions of total extracts of control fibroblasts and of fibroblasts from a patient with a mutation on each allele of the POLG gene cultured in the presence of 0.1% DMSO or with 0.5 μM or 1.0 μM clofilium tosylate were analysed by electrophoresis.
Skin fibroblasts from the control and from the patient were cultured to 100% confluence in a complete Dulbecco's Modified Eagle Medium (DMEM) high glucose medium (4.5 g/L D-glucose, 110 mg/L sodium pyruvate, 10% foetal bovine serum, 1% penicillin/streptomycin from the stock solution containing 10,000 I.U. penicillin and 10,000 μg/mL streptomycin) at 37° C. under 5% CO2. At confluence, the cultures were trypsinised and placed in culture at 30% confluence in a complete DMEM high glucose medium supplemented with either 0.1% DMSO or with 0.5 μM or 1.0 μM clofilium tosylate. The cells were then incubated at 37° C. under 5% CO2 and harvested at 100% confluence. After trypsinisation, the total proteins of the fibroblasts were extracted and analysed by western blot. The proteins studied were the POLG protein (subjected to SDS/PAGE gel analysis (6%)), the mitochondrial proteins ATP5B and TFAM, and the cytosolic protein TUB3A as batch control.

For the compound `CCCCCCC[N+](CC)(CC)CCCCc1ccc(Cl)cc1.Cc1ccc(S(=O)(=O)[O-])cc1` [clofilium tosylate], the “concentration chosen for the study in S. cerevisiae (determination of the maximum concentration tolerated)” value in data set [1] stood at 32 µM. Moreover, the “production of small colonies of the mutant mip1^G651S yeast strain” value in data set [2] (32 μM vs DMSO) was “reduced the production of small colonies”. The “production of cells not breathing (small colonies) in recessive and dominant mip1 mutants” value in data set [2] (32 μM, irrespective of mutated MIP1 domain, except mutations producing more than 90% of small colonies) is “reduced the production of cells not breathing”. Also, in the data set with MIP1 yeast mutants, the “fidelity of the different MIP1 yeast mutants (Ery^R frequency)” value is given as “no effect”. Besides, in data set [3], the hatching of embryos result is given as “increased” and the “number of laid eggs” value is on record as “increased”. Also, the “amount of mitochondrial proteins POLG, TFAM and ATP5B” value in data set [4] is “increased”.
